Source: patent US6777396B2, “Feed for livestock” (Ajinomoto Co., Inc., priority 2000, dated 2004)
Marks after values point to notes of the source that are not given here.

Legend:
weaned barrows [1] = assay: Example 3: feeding trial in weaned piglets, glutamine and/or glutamic acid added to starter feed; assay type: in vivo
Source text: 120 weaned barrows were used and divided into 4 groups (30 animals for each group, 6 replications with 5 animals per replication), namely a control group (C), a glutamine alone administration group (GLN), a glutamic acid alone administration group (GLU) and a glutamine+glutamic acid mixture administration group (GLN+GLU). Piglets were weaned at 17 days of age in average. Also, the GLN group was provided with an experimental feed prepared by adding crystalline glutamine at 1.2% per feed weight to the starter feed, the GLU group with an experimental feed prepared by adding crystalline glutamic acid at 1.2% per feed weight to the starter feed, and the GLN+GLU group with an experimental feed prepared by adding glutamine and glutamic acid at 0.12% and 1.08%, respectively, per feed weight to the starter feed. After two weeks passed, a common feed was fed to all groups. Body weight and residual feed weight were measured to calculate feed intake, body weight gain and feed efficiency on the 14th and 21st days after the weaning.

Weaned piglets = assay: Example 1: feeding trial in weaned piglets, nucleic acid and/or glutamine added to starter feed; assay type: in vivo
Source text: Weaned piglets, 72 barrows and 72 gilts were used and divided into 4 groups (36 animals for each group, 6 replications with 6 animals per replication), namely a control group (C), a nucleic acid alone administration group (N), a glutamine alone administration group (G) and a nucleic acid+glutamine mixture administration group (N+G). Piglets were weaned at 17 days of age in average. Also, the N group was provided with an experimental feed prepared by adding commercially available ribonucleic acid extracted from beer yeast (manufactured by Kirin Brewery CO., LTD.) at 0.8% per feed weight to the starter feed, the G group with an experimental feed prepared by adding crystalline glutamine at 1.2% per feed weight to the starter feed, and the N+G group with an experimental feed prepared by adding ribonucleic acid and glutamine at 0.8% and 1.2%, respectively, per feed weight to the starter feed. After two weeks passed, a common diet was fed to all groups. Body weight and residual feed weight were measured to calculate feed intake, body weight gain and feed efficiency on the 7th, 14th, 21st and 28th days after the weaning.

weaned barrows [2] = assay: Example 2: feeding trial in weaned piglets, nucleic acid and/or glutamic acid added to starter feed; assay type: in vivo
Source text: 120 weaned barrows were used and divided into 4 groups (30 animals for each group, 6 replications with 5 animals per replication), namely a control group (C), a nucleic acid alone administration group (N), a glutamic acid alone administration group (G) and a nucleic acid+glutamic acid mixture administration group (N+G). Piglets were weaned at 17 days of age in average. Also, the N group was provided with an experimental feed prepared by adding commercially available ribonucleic acid extracted from beer yeast (manufactured by Kirin Brewery CO., LTD.) at 0.8% per feed weight to the starter feed, the G group with an experimental feed prepared by adding crystalline glutamic acid at 1.2% per feed weight to the starter feed, and the N+G group with an experimental feed prepared by adding ribonucleic acid and glutamic acid at 0.12% and 1.08%, respectively, per feed weight to the starter feed. Body weight and residual feed weight were measured to calculate feed intake, body weight gain and feed efficiency on the 7th and 14th days after the weaning.

Small Intestinal Villi = assay: Example 4: effect on recovery of small intestinal villi (villi length, crypt thickness by optical microscope); assay type: in vivo, piglets; settings: 7th day after weaning
Source text: 24 weaned barrows were used and divided into 4 groups (6 animals for each group), namely a control group (C), a nucleic acid alone administration group (N), a glutamic acid alone administration group (G) and a nucleic acid+glutamic acid mixture administration group (N+G). Piglets were weaned at 17 days of age in average. Also, the N group was provided with an experimental feed prepared by adding commercially available ribonucleic acid extracted from beer yeast (manufactured by Kirin Brewery CO., LTD.) at 0.8% per feed weight to the starter feed, the G group with an experimental feed prepared by adding crystalline glutamic acid at 1.2% per feed weight to the starter feed, and the N+G group with an experimental feed prepared by adding ribonucleic acid and glutamic acid at 0.12% of and 1.08%, respectively, per feed weight to the starter feed. On the 7th day after weaning, all piglets were sacrificed to collect the small intestines. After the preparation of tissue sections from the collected small intestines by a general procedure, the length of villi and the thickness of crypt were measured using optical microscope.

[3] = 8 to 14 days after weaning, not statistically significant

Question: Which Average feed intake (weaned barrows [1]; 1 to 14 days (test feed)) does the source give for `N[C@@H](CCC(=O)O)C(=O)O` [G, glutamic acid] here?
Answer: 0.225 kg/day

Question: What about the Body weight gain (weaned barrows [1]; 1 to 14 days (test feed)) of the same compound?
Answer: 0.156 kg/day

Question: What about the Feed efficiency (weaned barrows [1]; 1 to 14 days (test feed)) of the same compound?
Answer: 1.453 Feed kg/Gain kg

Question: What about the Average feed intake (weaned barrows [1]; 15 to 21 days (common feed)) of the same compound?
Answer: 0.459 kg/day

Question: What about the Body weight gain (weaned barrows [1]; 15 to 21 days (common feed)) of the same compound?
Answer: 0.342 kg/day

Question: What about the Feed efficiency (weaned barrows [1]; 15 to 21 days (common feed)) of the same compound?
Answer: 1.333 Feed kg/Gain kg

Question: What does the source list for `NC(=O)CC[C@H](N)C(=O)O` [G, glutamine]?
Answer: Average feed intake (weaned barrows [1]; 1 to 14 days (test feed)): 0.211 kg/day; Body weight gain (weaned barrows [1]; 1 to 14 days (test feed)): 0.147 kg/day; Feed efficiency (weaned barrows [1]; 1 to 14 days (test feed)): 1.439 Feed kg/Gain kg; Average feed intake (weaned barrows [1]; 15 to 21 days (common feed)): 0.446 kg/day; Body weight gain (weaned barrows [1]; 15 to 21 days (common feed)): 0.351 kg/day; Feed efficiency (weaned barrows [1]; 15 to 21 days (common feed)): 1.280 Feed kg/Gain kg

Question: How did the Average feed intake (Weaned piglets; 0 to 7 days) turn out when ribonucleic acid was run?
Answer: 0.159 kg/day

Question: What about the Body weight gain (Weaned piglets; 0 to 7 days) of the same compound?
Answer: 0.116 kg/day

Question: And the Feed efficiency (Weaned piglets; 0 to 7 days)?
Answer: 1.392 Feed kg/Gain kg

Question: And the Average feed intake (Weaned piglets; 0 to 28 days)?
Answer: 0.463 kg/day

Question: What about the Body weight gain (Weaned piglets; 0 to 28 days) of the same compound?
Answer: 0.281 kg/day

Question: And the Feed efficiency (Weaned piglets; 0 to 28 days)?
Answer: 1.648^bc Feed kg/Gain kg

Question: And the Average feed intake (Weaned piglets; 7 to 14 days)?
Answer: 0.377 kg/day

Question: And the Body weight gain (Weaned piglets; 7 to 14 days)?
Answer: 0.301 kg/day

Question: What about the Feed efficiency (Weaned piglets; 7 to 14 days) of the same compound?
Answer: 1.256 Feed kg/Gain kg

Question: What about the Average feed intake (Weaned piglets; 14 to 21 days) of the same compound?
Answer: 0.525 kg/day

Question: What about the Body weight gain (Weaned piglets; 14 to 21 days) of the same compound?
Answer: 0.274 kg/day

Question: And the Feed efficiency (Weaned piglets; 14 to 21 days)?
Answer: 1.945 Feed kg/Gain kg

Question: What about the Average feed intake (Weaned piglets; 21 to 28 days) of the same compound?
Answer: 0.797 kg/day

Question: What about the Body weight gain (Weaned piglets; 21 to 28 days) of the same compound?
Answer: 0.432 kg/day

Question: What about the Feed efficiency (Weaned piglets; 21 to 28 days) of the same compound?
Answer: 1.852 Feed kg/Gain kg

Question: What about the Average body weight (Weaned piglets; 7 days after weaning, test feed days 0-14) of the same compound?
Answer: 6.17 kg

Question: What about the Average body weight (Weaned piglets; 14 days after weaning, test feed days 0-14) of the same compound?
Answer: 8.28 kg

Question: What about the Average body weight (Weaned piglets; 21 days after weaning, common diet after day 14) of the same compound?
Answer: 10.20 kg

Question: What about the Average body weight (Weaned piglets; 28 days after weaning, common diet after day 14) of the same compound?
Answer: 13.23 kg

Question: And the Average body weight (Weaned piglets; at the time of weaning (baseline))?
Answer: 5.36 kg

Question: And the “improvement in feed efficiency compared to the C group (in words)” value (Weaned piglets; whole test period (0 to 28 days after weaning))?
Answer: slight improvement in feed efficiency

Question: What about the Average feed intake (weaned barrows [2]; 0 to 7 days) of the same compound?
Answer: 0.151^ab kg/day

Question: What about the Body weight gain (weaned barrows [2]; 0 to 7 days) of the same compound?
Answer: 0.102^b kg/day

Question: What about the Feed efficiency (weaned barrows [2]; 0 to 7 days) of the same compound?
Answer: 1.490 Feed kg/Gain kg

Question: What about the Average feed intake (weaned barrows [2]; 8 to 14 days) of the same compound?
Answer: 0.291 kg/day

Question: And the Body weight gain (weaned barrows [2]; 8 to 14 days)?
Answer: 0.234 kg/day

Question: What about the Feed efficiency (weaned barrows [2]; 8 to 14 days) of the same compound?
Answer: 1.252 Feed kg/Gain kg

Question: What about the “body weight gain per day compared with C group (in words)” value (weaned barrows [2]; [3]) of the same compound?
Answer: further increased

Question: What about the “feed efficiency compared to the C group and G group (in words)” value (weaned barrows [2]; [3]) of the same compound?
Answer: tendency to be improved

Question: And the “body weight gain per day compared with the other groups (in words)” value (weaned barrows [2]; 7 days just after weaning)?
Answer: not different from the C group

Question: What about the Crypt thickness (Small Intestinal Villi; Duodenum) of the same compound?
Answer: 130^ab μm

Question: What about the Villi length (Small Intestinal Villi; Duodenum) of the same compound?
Answer: 385^b μm

Question: And the Crypt thickness (Small Intestinal Villi; Ileum)?
Answer: 128^b μm

Question: What about the Villi length (Small Intestinal Villi; Ileum) of the same compound?
Answer: 344^ab μm

Question: And the Crypt thickness (Small Intestinal Villi; Jejunum)?
Answer: 136^b μm

Question: What about the Villi length (Small Intestinal Villi; Jejunum) of the same compound?
Answer: 406^b μm

Question: What about the “villi length compared between groups (in words)” value (Small Intestinal Villi; duodenum, N and G vs C, N+G vs N and G) of the same compound?
Answer: significantly longer

Question: And the “crypt thickness compared with the C and G group (in words)” value (Small Intestinal Villi; jejunum and ileum)?
Answer: significantly thicker
